Tested on: 885512-296-R-J2-PDC complex spheroid growth, % test/control
Assay: Anticancer human tumor 885512-296-R-J2-PDC patient-derived breast carcinoma cell line growth inhibition [Asc]
Details: for IC50: curve of first compound; for viability, T/C: stronger effect = lower value
Description: Multicellular complex tumor spheroid response to apoptosis pathway targeting inhibitors Alrizomadlin, Pelcitoclax, and Dasminapant in combination with a variety of drugs and investigational agents in selected tumor cell lines
The MDM2 inhibitor alrizomadlin, the Bcl-2/Bcl-xL inhibitor pelcitoclax, and the IAPs inhibitor dasminapant were evaluated both individually and in combination with standard of care and investigational anticancer small molecules within a complex spheroid model of solid tumors. . Complex spheroids include a stromal component modeled by human endothelial cells (HUVEC) and fibroblasts modeled by human mesenchymal stem cells (MSCs). The concentration ranges selected for each drug and investigational agent were based upon clinically achievable concentrations if the clinical Cmax of the agent was known.
Compounds. The drugs and investigational agents: alrizomadlin (APG-115; NSC831270), pelcitoclax (APG-1252; NSC835773), dasminapant (APG-1387;NSC834197), TAK-243 (NSC785004), copanlisib (NSC809693), olaparib (NSC753686), talazoparib (NSC767125), cobimetinib (NSC 768068), eltanexor (KPT-8602, NSC 794443), abemaciclib (NSC 768073), sotorasib (NSC818433), adagrasib (NSC 831453), MRTX-1133 (NSC 836407), Iadademestat (ORY1001, NSC 806812), and RMC-4630 (NSC839698), were obtained from the NCI Developmental Therapeutics Program Chemical Repository. The FDA-approved anticancer drug set is available from the Developmental Therapeutics Program at https://dtp.cancer.gov/organization/dscb/obtaining/available plates.htm. […] The stock solutions were prepared in dimethyl sulfoxide (DMSO, Sigma-Aldrich, St. Louis, MO, cat. D2650) at 800-fold the tested concentration and stored at -70 degrees C prior to their use. All drugs and investigational agents were tested over a range starting from a high concentration at or near the clinical Cmax and decreasing in half-log increments. If the clinical Cmax for an agent had not been determined, the highest concentration tested was 10 microM.
The patient-derived cancer (PDC) cell lines include five colon adenocarcinomas: 186277-243-T-J2-PDC, 616215-338-R-J1-PDC, 439559-082-T-J2-PDC, 463943-066-T-J2-PDC, and 519858-162-T-J1-PDC; three pancreatic carcinomas: 323965-272-R-J2-PDC, 521955-158-R6-J3-PDC, and 521955-158-R2-J5-PDC; two uterine sarcomas: 327498-152-R-J2-PDC and 993429-296-R-J1-PDC; two rhabdomyosarcomas: 755483-174-R-J1-PDC and 772245-204-R-J1-PDC; two soft tissue sarcomas: 126254-015-R-J1-PDC and 494315-158-R-J1-PDC; two malignant fibrous histiocytomas: 317291-083-R-J1-PDC and 596521-263-R-J1-PDC; two breast carcinomas: 171881-019-R-J1-PDC and 885512-296-R-J2-PDC; and one ovarian carcinoma: 6556581-035-R-J-PDC were obtained from the NCI PDMR, (https://pdmr.cancer.gov). The established cell lines HSSY-2 synovial sarcoma (RRID:CVCL 8719), SYO-1 synovial sarcoma (RRID:CVCL_7146), MPNST malignant peripheral neural sheath tumor were obtained from the Sloan Kettering Institute. The following established cell lines were purchased from the American Type Culture Collection (ATCC, Manassas, VA), Sor the received from the NCI repository:, PANC-1 pancreatic carcinoma (CRL-1469, RRID:CVCL_0480), OVCAR-5 ovarian carcinoma (RRID:CVCL_1628), OVCAR-8 ovarian carcinoma (RRID:CVCL_1629), , MCF-7 breast carcinoma (CRL-12584, RRID:CVCL_0031), MDA-MB-231 breast carcinoma (CRL-12532, RRID:CVCL_0062), NCI-H1876 small cell lung carcinoma (CRL-5902, RRID:CVCL_1503), NCI-H510A small cell lung carcinoma (HTB-184, RRID:CVCL_1565), NCI-H1417 (CRL-5869, RRID:CVCL_1469), and NCI-H196 small cell lung carcinoma (CRL-5823, RRID:CVCL_1509). Dr. Peter Houghton (Greehey Children's Cancer Research Institute, University of Texas Health Science Center, San Antonio, TX) provided Rh-18 rhabdomyosarcoma (RRID:CVCL_1659). Pooled donor human umbilical vein endothelial cells (HUVEC, Lonza, cat. CC-2519) and human mesenchymal stem cells (hMSC, Lonza, cat. PT-2501) were purchased from Lonza (Walkersville, MD).
Cell Culture. […]

[1] = second compound 0.01 µM, first compound 0.0316 µM
[2] = second compound 0.01 µM, first compound 0.1 µM
[3] = second compound 0.01 µM, first compound 0.316 µM
[4] = second compound 0.01 µM, first compound 1 µM
[5] = second compound 0.0316 µM, first compound 0.0316 µM
[6] = second compound 0.0316 µM, first compound 0.1 µM
[7] = second compound 0.0316 µM, first compound 0.316 µM
[8] = second compound 0.0316 µM, first compound 1 µM
[9] = second compound 0.1 µM, first compound 0.0316 µM
[10] = second compound 0.1 µM, first compound 0.1 µM
[11] = second compound 0.1 µM, first compound 0.316 µM
[12] = second compound 0.1 µM, first compound 1 µM
[13] = second compound 0.316 µM, first compound 0.0316 µM
[14] = second compound 0.316 µM, first compound 0.1 µM
[15] = second compound 0.316 µM, first compound 0.316 µM
[16] = second compound 0.316 µM, first compound 1 µM
[17] = second compound 1 µM, first compound 0.0316 µM
[18] = second compound 1 µM, first compound 0.1 µM
[19] = second compound 1 µM, first compound 0.316 µM
[20] = second compound 1 µM, first compound 1 µM
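Further: spheroids exposed to compounds for seven days.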
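Wherever viability, T/C is given: 100% = DMSO vehicle control wells.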

| SMILES | IC50 (second compound 0.01 µM) | IC50 (second compound 0.0316 µM) | IC50 (second compound 0.1 µM) | IC50 (second compound 0.316 µM) | IC50 (second compound 1 µM) | viability, T/C [1] | viability, T/C [2] | viability, T/C [3] | viability, T/C [4] | viability, T/C [5] | viability, T/C [6] | viability, T/C [7] | viability, T/C [8] | viability, T/C [9] | viability, T/C [10] | viability, T/C [11] | viability, T/C [12] | viability, T/C [13] | viability, T/C [14] | viability, T/C [15] | also measured |
| --- | --- | --- | --- | --- | --- | --- | --- | --- | --- | --- | --- | --- | --- | --- | --- | --- | --- | --- | --- | --- | --- |
| O=C(c1cc(Cc2n[nH]c(=O)c3ccccc23)ccc1F)N1CCN(C(=O)C2CC2)CC1 + CNC(C)C(=O)NC1CN(S(=O)(=O)c2cccc(S(=O)(=O)N3CCC4CCC(C(=O)NC(c5ccccc5)c5ccccc5)N4C(=O)C(NC(=O)C(C)NC)C3)c2)CCC2CCC(C(=O)NC(c3ccccc3)c3ccccc3)N2C1=O | 4110 nM | 2960 nM | 3930 nM | 3850 nM | 3630 nM | 95.6% | 96.4% | 95.6% | 94.5% | 97.1% | 101% | 99.6% | 84% | 97.9% | 98.2% | 106% | 86.2% | 101% | 106% | 102% | viability, T/C (second compound 0.01 µM, first compound 3.16 µM): 60.7%; viability, T/C (second compound 0.01 µM, first compound 10 µM): 13.5%; viability, T/C (second compound 0.0316 µM, first compound 3.16 µM): 48.2%; viability, T/C (second compound 0.0316 µM, first compound 10 µM): 14.4%; viability, T/C (second compound 0.1 µM, first compound 3.16 µM): 59.8%; viability, T/C (second compound 0.1 µM, first compound 10 µM): 10.6%; viability, T/C [16]: 89.3%; viability, T/C (second compound 0.316 µM, first compound 3.16 µM): 58.1%; viability, T/C (second compound 0.316 µM, first compound 10 µM): 12%; viability, T/C [17]: 96.1%; viability, T/C [18]: 97.8%; viability, T/C [19]: 95.4%; viability, T/C [20]: 87.2%; viability, T/C (second compound 1 µM, first compound 3.16 µM): 55%; viability, T/C (second compound 1 µM, first compound 10 µM): 13.1% |
| CCN1CCN(Cc2ccc(Nc3ncc(F)c(-c4cc(F)c5nc(C)n(C(C)C)c5c4)n3)nc2)CC1 + CNC(C)C(=O)NC1CN(S(=O)(=O)c2cccc(S(=O)(=O)N3CCC4CCC(C(=O)NC(c5ccccc5)c5ccccc5)N4C(=O)C(NC(=O)C(C)NC)C3)c2)CCC2CCC(C(=O)NC(c3ccccc3)c3ccccc3)N2C1=O | 207 nM | > 1000 nM | 742 nM | > 1000 nM | > 1000 nM | 82.6% | 56.7% | 49.2% | 26% | 104% | 82.6% | 71.6% | 49.9% | 116% | 91.4% | 71.3% | 42.7% | 103% | 90.8% | 64.6% | viability, T/C (second compound 0.01 µM, first compound 0.00316 µM): 79.9%; viability, T/C (second compound 0.01 µM, first compound 0.01 µM): 104%; viability, T/C (second compound 0.0316 µM, first compound 0.00316 µM): 102%; viability, T/C (second compound 0.0316 µM, first compound 0.01 µM): 106%; viability, T/C (second compound 0.1 µM, first compound 0.00316 µM): 115%; viability, T/C (second compound 0.1 µM, first compound 0.01 µM): 107%; viability, T/C (second compound 0.316 µM, first compound 0.00316 µM): 110%; viability, T/C (second compound 0.316 µM, first compound 0.01 µM): 112%; viability, T/C [16]: 50.3%; viability, T/C (second compound 1 µM, first compound 0.00316 µM): 112%; viability, T/C (second compound 1 µM, first compound 0.01 µM): 112%; viability, T/C [17]: 111%; viability, T/C [18]: 87.5%; viability, T/C [19]: 87.6%; viability, T/C [20]: 68.3% |
